These results are taken from patent publication US20130165471A1, “2-SUBSTITUTED-THIENOQUINOLONES AND RELATED COMPOUNDS AS ANTI-INFECTIVE AGENTS” (Achillion Pharmaceuticals Inc., priority 2011, published 2013).

In general, MIC refers to the lowest concentration found to suppress growth.

Converted amounts (≈) assume the structure as drawn.

The test system of series [1] is S. aureus ATCC 29213. The series is described as follows: Minimum inhibitory concentration (MIC) assay, MSSA. Type of series: cell-based. The settings on record: Staphylococcus aureus, broth microdilution. The procedure:
(§1) The preparation of compounds listed in Table I can be carried out under conditions analogous to those described in the examples above. Those of skill in the art will recognize routine changes in reaction conditions and starting materials needed to produce the listed compounds. For example, compound 5 in Table I, is prepared by the method shown above, except tert-butyl (1-(pyrrolidin-3-yl)ethyl)carbamate, prepared by the method shown in Schoeder, et al., J. Heterocyclic Chem., 29: 1481-1498 (1992), is used as the amine starting material. Compound activity was evaluated in a standard minimal inhibitory concentration assay such as the assay provided in Example 4. Compound cytotoxicity is determined using a standard assay of cytotoxicity such as the assay provided in Example 5. Compounds 10, 14, and 20 of Table I are provided as comparative examples.
(§2) The antimicrobial activity of the compounds of the invention may be evaluated by a number of methods, including the following visual minimum inhibitory concentration (MIC) assay. This assay determines the minimum concentration of compound required to inhibit growth of a bacterial strain.
(§3) Whole-cell antibacterial activity is determined by broth microdilution using conditions recommended by the NCCLS (see National Committee for Clinical Laboratory Standards. 2001. Performance standards for antimicrobial susceptibility testing: 11th informational supplement. Vol. 21, no. 1, M100-S11. National Committee for Clinical Laboratory Standards, Wayne, Pa.). Test compounds are dissolved in DMSO and diluted 1:50 in Mueller-Hinton II broth (Becton-Dickinson) to produce a 256 μg/ml stock solution. In a 96-well microtiter plate, the compound solution is serially two-fold diluted in Mueller-Hinton II broth. After the compounds are diluted, a 50 μl aliquot of the test organism (˜1×10^6 cfu/mL) is added to each well of the microtiter plate. The final test concentrations range from 0.125-128 μg/mL. Inoculated plates are incubated in ambient air at 37° C. for 18 to 24 hours. The organisms selected for testing included laboratory strains S. aureus ATCC 29213 and E. coli ATCC 25922 (strains purchased from American Type Culture Collection, Manassas, Va.) m, S. aureus FQR700699, and Paeruginosa 27853. The minimum inhibitory concentration (MIC) is determined as the lowest concentration of compound that inhibited visible growth of the test organism.

Series [2] has as its system Hep2. Nature of the series: Cytotoxicity, cell viability staining with Alamar Blue. The settings on record: Hep2 cells. Type of series: cell-based, human. On the set-up: unit not given here. Here is the method:
as §1
To determine whether the microcidal effect observed against S. aureus and E. coli is specific to bacterial cells, compounds are screened for cell viability effects on several human cell types.
Optimal cell density is first determined by plating cells in a 96-well plate standard sterile tissue culture plates in 100 μl media, 10% FBS at six cell densities from 500 cells/well to 15,000 cells/well. A cell free well containing only media is used as a control. Cells are incubated at 37° C. in a 5% CO2 incubator for 24 hours. 10% culture volume (10 ul) of Alamar Blue (Biosource, DAL1100, 100 mL) is then added. Cells are incubated at 37° C. in a 5% CO2 incubator and read in a Victor V plate reader, 544 nm excitation, 590 nm emission, at 3, 4, and 24 hours after the addition of Alamar Blue. The cell number vs. change in fluorescence is plotted to determine linearity of signal vs. cell number. The optimal density varies between 500-15,000 cells/well depending on the specific cell type. The optimal density is selected based on the highest number of cells that is still in the linear response range.
Cells are plated at optimal cell density in a standard sterile tissue culture 96 well plate, and incubated at 37° C., O/N in a 5% CO2 incubator. 12 to 48 hours post-plating media is removed. The cells are washed 1 or 2 times with 1×PBS and replaced with fresh media containing the test compound in 1% DMSO. 24 to 72 hours after addition of compound, the media is removed, and the cells washed 1 to 2 times with 1×PBS. Fresh media containing 1/10 volume of Alamar Blue is then added. Plates are incubated 4 hours at 37° C. in a 5% CO2 incubator and read in a Victor V plate reader, 544 nm excitation, 590 nm emission.
Compounds are diluted to 20 micromolar in 1% DMSO and media and screened in duplicate to obtain single concentration cytotoxicity data. Eight concentration points from 0.78 micromolar to 100 micromolar, run in duplicate, are used to determine cytotoxicity CC50 values. Cells with 1% DMSO and media are used as a negative control, compounds having a known CC50 against a particular cell type are used as positive controls.
The change in fluorescence vs. concentration of test compound is plotted to determine the cytotoxicity of the compound.

Series [3] concerns fluoroquinolone-resistant S. aureus ATCC 700699. The series is described as follows: Minimum inhibitory concentration (MIC) assay, MRSA. The series is classed as cell-based. The settings on record: Staphylococcus aureus, broth microdilution. Here is the method: as §1, §2, §3
(In broth dilution the organism is exposed to a series of concentrations in liquid medium.)

Turning to `COc1c(N2CCCC(CN)C2)c(F)cc2c(=O)c3c(O)c(C(N)=O)sc3n(C3CC3)c12` (stereo not drawn) [Compound 5, 7-(3-(aminomethyl)piperidin-1-yl)-9-cyclopropyl-6-fluoro-3-hydroxy-8-methoxy-4-oxo-4,9-dihydrothieno[2,3-b]quinoline-2-carboxamide], the MIC in series [1] was 0.5 µg/mL (≈ 1.09 µM); in series [3] it was 2 µg/mL (≈ 4.34 µM). Besides, in series [2], the “Cytotoxicity Hep2” value was 30.
